Values of other authors in patent publication US20090155358A1, “PHARMACEUTICAL COMPOSITIONS OF SHORT-ACTING HYPNOTIC AGENTS IN MODIFIED-RELEASE FORMS AND THE […] PREPARE THE MENTIONED FORMULATION” (Gador S.A., priority 2005, published 2009).
Where a name gives a salt, the structure may show the parent alone.

Assays:
[1] = biological target: T1, BZ1 receptor (Homo sapiens, UniProt P14867+P18507); conditions: in vitro
T1 sequence (P14867 28-456): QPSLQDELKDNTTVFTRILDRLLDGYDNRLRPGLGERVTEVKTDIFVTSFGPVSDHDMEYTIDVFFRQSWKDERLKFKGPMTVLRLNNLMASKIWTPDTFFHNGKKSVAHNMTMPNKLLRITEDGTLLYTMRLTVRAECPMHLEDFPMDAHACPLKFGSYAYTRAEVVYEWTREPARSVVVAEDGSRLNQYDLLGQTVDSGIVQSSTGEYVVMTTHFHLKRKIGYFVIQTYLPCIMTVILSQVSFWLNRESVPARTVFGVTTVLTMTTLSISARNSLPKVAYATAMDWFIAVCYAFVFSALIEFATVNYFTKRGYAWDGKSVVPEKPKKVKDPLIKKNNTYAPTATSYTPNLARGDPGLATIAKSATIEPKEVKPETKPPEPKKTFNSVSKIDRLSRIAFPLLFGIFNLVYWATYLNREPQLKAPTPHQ
T1 sequence (P18507 40-467 limits assumed): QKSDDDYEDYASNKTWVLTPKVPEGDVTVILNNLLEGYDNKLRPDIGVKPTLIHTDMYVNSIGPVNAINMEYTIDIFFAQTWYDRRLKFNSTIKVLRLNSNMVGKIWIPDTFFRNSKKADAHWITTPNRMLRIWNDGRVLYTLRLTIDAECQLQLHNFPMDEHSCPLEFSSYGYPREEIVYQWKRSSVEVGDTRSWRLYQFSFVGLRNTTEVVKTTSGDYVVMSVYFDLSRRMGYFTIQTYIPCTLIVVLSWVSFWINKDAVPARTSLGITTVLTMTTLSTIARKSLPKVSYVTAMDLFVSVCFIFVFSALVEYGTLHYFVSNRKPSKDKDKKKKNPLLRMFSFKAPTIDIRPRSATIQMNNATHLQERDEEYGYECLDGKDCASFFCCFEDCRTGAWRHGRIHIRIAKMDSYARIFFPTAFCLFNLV
T1 sequence (P47870 25-512 partner limits assumed): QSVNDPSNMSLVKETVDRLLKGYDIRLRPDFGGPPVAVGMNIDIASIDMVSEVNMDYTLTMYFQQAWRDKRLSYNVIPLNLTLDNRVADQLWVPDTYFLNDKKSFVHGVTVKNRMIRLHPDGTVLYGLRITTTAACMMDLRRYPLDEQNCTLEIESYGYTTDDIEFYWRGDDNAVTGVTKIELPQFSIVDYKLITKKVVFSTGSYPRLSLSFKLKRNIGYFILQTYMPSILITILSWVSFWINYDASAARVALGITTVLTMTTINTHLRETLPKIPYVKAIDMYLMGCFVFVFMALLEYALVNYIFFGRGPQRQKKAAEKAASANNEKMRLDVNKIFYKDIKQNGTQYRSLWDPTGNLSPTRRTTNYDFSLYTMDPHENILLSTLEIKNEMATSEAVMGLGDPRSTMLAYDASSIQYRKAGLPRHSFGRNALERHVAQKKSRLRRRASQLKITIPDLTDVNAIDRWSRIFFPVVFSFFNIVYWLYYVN

| Compound | affinity for BZ1 receptor, subunits α1/α5 [1] | solubility in alcohol (alcohol) | solubility in propylene glycol (propylene glycol) | solubility in water (water) |
| --- | --- | --- | --- | --- |
| Cc1ccc(-c2nc3ccc(C)cn3c2CC(=O)N(C)C)cc1 [Zolpidem, N,N,6-trimethyl-2-p-toyl-imidazo[1,2-a]pyridine-3-acetamide] | large affinity | – | – | – |
| Cc1ccc(-c2nc3ccc(C)cn3c2CC(=O)N(C)C)cc1 [Zolpidem tartrate, N,N,6-trimethyl-2-p-toyl-imidazo[1,2-a]pyridine-3-acetamide] | – | sparingly soluble | sparingly soluble | sparingly soluble |
